Where two headings read alike, the source gives them in different places.
Legend:
HT-29 cells [1] = test: Colony formation; format: cell-based, human
HT-29 cells [2] = test: Intracellular ROS by flow cytometry with CM-H2-DCF-DA; format: cell-based, human; conditions: 24 h; for intracellular ROS (DCF) after high concentration: 500 nM; for change in DCF fluorescence (intracellular ROS) vs vehicle: 50 nM
HT-29 cells [3] = test: Seahorse oxygen consumption rate / extracellular acidification rate; format: cell-based, human
NOX2 [4] = target: T1, NOX2 (Homo sapiens, UniProt P04839); test: PMA-induced superoxide anion luminescence assay, differentiated HL-60 cells; format: cell-based
HT-29 cells [5] = test: MTT cell growth assay; format: cell-based, human; conditions: for IC50: Homo sapiens, HT-29, 72 h, read-out: IC50 inhibition of HT-29 cell proliferation; for 50% growth inhibition of HT-29 cells reached within 72 h: 100 nM, time course up to 72 h
HT-29 cells [6] = tested on: HT-29 cells
NOX2 [7] = target: T1, NOX2; test: PMA-induced superoxide anion luminescence assay, PMNs; format: cell-based
HT-29 cells [8] = test: HT-29 cell growth by cell counting after SOD/catalase; format: cell-based, human; conditions: 96 h, 0-2000 U/ml, significant at ≥ 500 U/ml
[9] = read-out: 10-day treatment IC50, colony formation, HT-29, 10-day exposure
[10] = read-out: 24-h treatment IC50, cellular respiration (OCR), HT-29, 24 h
[11] = read-out: 30-min treatment IC50, cellular respiration (OCR), HT-29, 30 min
[12] = read-out: 60-min treatment IC50, cellular respiration (OCR), HT-29, 60 min
[13] = ratio of NOX2 IC50 values, PMN vs HL-60
[14] = Homo sapiens, HT-29, 240 h, read-out: 10-day treatment IC50, colony formation
[15] = Homo sapiens, HT-29, read-out: 2-h treatment IC50, colony formation
[16] = Homo sapiens, HT-29, 1 h, read-out: 60-min treatment IC50, cellular respiration (OCR)
[17] = Homo sapiens, HT-29, 24 h, read-out: 24-h treatment IC50, cellular respiration (OCR)
[18] = Homo sapiens, HT-29, 1 h, read-out: 60-min treatment IC50, cellular respiration (OCR), HT-29, 60 min
[19] = Homo sapiens, HT-29, 24 h, read-out: 24-h treatment IC50, cellular respiration (OCR), HT-29, 24 h

COC(=O)c1ccc2c(c1)[I+]c1ccccc1-2.Cc1ccc(S(=O)(=O)[O-])cc1 [compound 140, Dibenz[b,d]iodolium, 3-(methoxycarbonyl)-, salt with 4-methyl-benzenesulfonic acid (1:1)] was tested, and the IC50 (HT-29 cells [1]; [9]) was 40 ± 32 nM, the “intracellular ROS (DCF) after high concentration” value (shortened to “intracellular ROS (DCF)”) (HT-29 cells [2]) was “did not demonstrate this effect” and the IC50 (HT-29 cells [3]; [10]) was 76 ± 21 nM. For the same molecule, the IC50 (HT-29 cells [3]; [11]) was 678 ± 201 nM, the IC50 (HT-29 cells [3]; [12]) was 475 ± 116 nM and the “fold more potent in HL-60 leukemia line compared to PMNs” value (shortened to “fold more potent in HL-60 leukemia line”) (NOX2 [4]; [13]) was 2- to 5 fold.

Work on c1ccc2c(c1)[I+]c1ccccc1-2 [DPI, Diphenylene iodonium, reference compound] yielded an IC50 (HT-29 cells [5]) of roughly 450 nM, an IC50 (HT-29 cells [1]; [14]) of 39 ± 23 nM and an IC50 (HT-29 cells [1]; [15]) of 9260 nM. For the same molecule, the “change in DCF fluorescence (intracellular ROS) vs vehicle” value (shortened to “change in DCF fluorescence”) (HT-29 cells [2]) was “left-shift (decrease) in DCF fluorescence”, the “intracellular ROS (DCF)” value (HT-29 cells [2]) was “increases in intracellular ROS” and the “decrease in oxygen consumption” value (HT-29 cells [3]; 2 μM, immediate effect) was 80%. For the same molecule, the “concentration at which ECAR increased” value (HT-29 cells [3]; HT-29, 24-h treatment) was 316 nM, the “concentration at which OCR began to decrease” value (HT-29 cells [3]; HT-29, 24-h treatment) was 31.6 nM and the IC50 (HT-29 cells [3]; [16]) was 4570 nM. The IC50 (HT-29 cells [3]; [17]) was 200 ± 245 nM, the “effect on mitochondrial ROS production (MitoSox)” value (HT-29 cells [6]; 1 μM, 2 h) was “right shift in MitoSox fluorescence” and the “effect on mitochondrial ROS production (MitoSox)” value (HT-29 cells [6]; concentrations ≤ 200 nM, 24 h) was “no effect”.

With Brc1ccc2c(c1)[I+]c1cc(Br)ccc1-2.[Br-] [compound 104, Dibenziodolium, 3,7-dibromo-, bromide] the “50% growth inhibition of HT-29 cells reached within 72 h” value (HT-29 cells [5]) was “achieved 50% growth inhibition”, the IC50 (HT-29 cells [5]) was 150 to 250 nM and the IC50 (HT-29 cells [1]; [14]) was 9 ± 2 nM. The IC50 (HT-29 cells [1]; [15]) was 1220 nM, the “change in DCF fluorescence” value (HT-29 cells [2]) was “left-shift (decrease) in DCF fluorescence” and the “intracellular ROS (DCF)” value (HT-29 cells [2]) was “did not demonstrate this effect”. It also gave an IC50 (HT-29 cells [3]; [16]) of 1470 nM, an IC50 (HT-29 cells [3]; [17]) of 74 ± 54 nM and an IC50 (NOX2 [7]) of 481 ± 44 nM. The “fold more potent in HL-60 leukemia line” value (NOX2 [4]; [13]) was 2- to 5 fold.

In the case of O=[N+]([O-])c1ccc2c(c1)[I+]c1cc([N+](=O)[O-])ccc1-2.[Br-] [compound 392, Dibenziodolium, 3,7-dinitro-, bromide], the IC50 (HT-29 cells [1]; [14]) is reported as 27 ± 28 nM, the “change in DCF fluorescence” value (HT-29 cells [2]) is reported as “left-shift (decrease) in DCF fluorescence” and the “intracellular ROS (DCF)” value (HT-29 cells [2]) is reported as “did not demonstrate this effect”. For the same molecule, the “effect on cellular metabolic activity (OCR/ECAR)” value (HT-29 cells [3]; 24 h, concentrations ≤ 316 nM) was “no adverse effects”, the IC50 (HT-29 cells [3]; [18]) was 2180 nM and the IC50 (HT-29 cells [3]; [19]) was roughly 800 nM. For the same molecule, the IC50 (HT-29 cells [3]; [10]) was 801 ± 194 nM, the IC50 (NOX2 [7]) was 850 ± 197 nM and the “fold more potent in HL-60 leukemia line” value (NOX2 [4]) was 2- to 5 fold.

In the case of O=[N+]([O-])c1cccc2c1-c1c(cccc1[N+](=O)[O-])[I+]2.[Br-] [compound 521, Dibenziodolium, 1,9-dinitro-, salt with bromide (1:1)], the IC50 (HT-29 cells [1]; [9]) is reported as 488 ± 101 nM, the “24-h treatment IC50, cellular respiration (OCR)” value (HT-29 cells [3]; HT-29, 24 h) is reported as “No effect” and the IC50 (HT-29 cells [3]; [11]) is reported as 1670 nM. The IC50 (HT-29 cells [3]; [12]) was 1000 nM.

With O=[N+]([O-])c1ccc2c(c1)[I+]c1ccccc1-2.[Cl-] [compound 428, Dibenz[b,d]iodolium, 3-nitro-, chloride] the “50% growth inhibition of HT-29 cells reached within 72 h” value (HT-29 cells [5]) was “achieved 50% growth inhibition”, the IC50 (HT-29 cells [1]; [14]) was 11 ± 6 nM and the IC50 (HT-29 cells [1]; [15]) was 77 ± 12 nM. The IC50 (HT-29 cells [1]; Homo sapiens, HT-29, read-out: 6-h treatment IC50, colony formation) was 29 ± 23 nM, the “change in DCF fluorescence” value (HT-29 cells [2]) was “left-shift (decrease) in DCF fluorescence” and the “intracellular ROS (DCF)” value (HT-29 cells [2]) was “increases in intracellular ROS”. The IC50 (HT-29 cells [3]; [18]) was 211 ± 33 nM and the IC50 (HT-29 cells [3]; [19]) was 45 ± 23 nM.

B1: catalase: ROS detoxifying enzyme, human catalase (Sigma Aldrich) (protein, UniProt P04040 2-527, looked up)
Catalase: ADSRDPASDQMQHWKEQRAAQKADVLTTGAGNPVGDKLNVITVGPRGPLLVQDVVFTDEMAHFDRERIPERVVHAKGAGAFGYFEVTHDITKYSKAKVFEHIGKKTPIAVRFSTVAGESGSADTVRDPRGFAVKFYTEDGNWDLVGNNTPIFFIRDPILFPSFIHSQKRNPQTHLKDPDMVWDFWSLRPESLHQVSFLFSDRGIPDGHRHMNGYGSHTFKLVNANGEAVYCKFHYKTDQGIKNLSVEDAARLSQEDPDYGIRDLFNAIATGKYPSWTFYIQVMTFNQAETFPFNPFDLTKVWPHKDYPLIPVGKLVLNRNPVNYFAEVEQIAFDPSNMPPGIEASPDKMLQGRLFAYPDTHRHRLGPNYLHIPVNCPYRARVANYQRDGPMCMQDNQGGAPNYYPNSFGAPEQQPSALEHSIQYSGEVRRFNTANDDNVTQVRAFYVNVLNEEQRKRLCENIAGHLKDAQIFIQKKAVKNFTEVHPDYGSHIQALLDKYNAEKPKNAIHTFVQSGSHLAAREKANL
With B1 the “effect on proliferation of HT-29 cells vs control-treated cells” value (HT-29 cells [8]) was “reduced the proliferation”.
